Among the data in PubChem BioAssay AID1626 (SRMLSC, 2009) are IC50, IC90 and CC50 values, retold here.

The assay relates to M. tuberculosis H37Rv growth inhibition. The assay can be described thus: M. tuberculosis H37Rv growth inhibitors, H37Rv strain (AID 1626). Particulars: for IC90: measured here: IC90 against H37Rv; for CC50: measured here: Vero cell cytotoxicity.

Regarding `O=C(Nc1cc(Oc2ccccc2)cc([N+](=O)[O-])c1)C12CC3CC(C1)CC(n1cnc(Cl)n1)(C3)C2`, the IC50 was 4.19 µM, the IC90 was > 100 µM and the CC50 is > 40 µM.
Regarding `CCCc1cc(C(=O)Nc2nccs2)cs1`, the IC50 was 17.7 µM and the 90% effect concentration (IC90) was > 100 µM.
`CCCNC(=O)c1nnsc1S(=O)(=O)c1ccc(Cl)cc1`: the IC50 is 25.2 µM, the IC90 turned out to be 28 µM and the CC50 is 16.2 µM.
Turning to `Cc1cc(=O)oc2ccc(OC(=O)CC(C)C)cc12`, the IC90 is > 100 µM.
With `Cc1cc(NCCCn2ccnc2)n2nc(-c3ccc(Cl)cc3)cc2n1`, the IC50 was 11.1 µM, the IC90 was determined as 15.8 µM and the CC50 is > 40 µM.
Turning to `Cc1ccc2nc(Cl)c3nnnn3c2c1`, the IC50 was 11.9 µM, the IC90 is 17 µM and the CC50 was > 40 µM.
As to `CCOC(=O)CSc1ncc(-c2cccc(Cl)c2)cn1`, the IC50 was 1.35 µM and the IC90 was determined as 3.11 µM.
Take `Cc1nn(-c2ccccc2)c(Cl)c1/C=N/O`: the 90% effect concentration (IC90) was > 100 µM.
Turning to `COc1cc(/C=N/NC(=Nc2ccc(C)cc2)c2nc3ccccc3s2)ccc1O`, the concentration for an effect of 90% (IC90) was > 100 µM and the CC50 is > 40 µM.
Regarding `CCOC(=O)CSc1nnc(-c2cccc(Br)c2)o1`, the IC50 is 0.486 µM and the IC90 was determined as 15.2 µM.
On the same counts, the results for `Nc1ccc2ncccc2c1` are 37.9 µM and > 100 µM.
For `O=[N+]([O-])c1ncn(Cc2c(Cl)cccc2Cl)n1` the same measures were 36.6 µM and > 100 µM.
For `C#CCOCCOCCOCCNc1nc(N2CCN(C(=O)[C@H](Cc3ccc(O)cc3)n3cc([C@@H](N)C(C)CC)nn3)CC2)nc(N2CCN(C(=O)[C@H](Cc3cc4ccccc4[nH]3)n3cc([C@@H](N)CC(C)C)nn3)CC2)n1` (stereo partly drawn) the same measures were 7.36 µM and 21.5 µM.
In the case of `CCOC(=O)C(Cc1ccccc1)C(=O)Nc1cccc2ccccc12` (stereo not drawn), the IC50 was 4 µM and the IC90 is 12.7 µM.
`COc1cc(N=c2c([N+](=O)[O-])nn(-c3ccc4c(c3)OCCO4)n2O)cc(OC)c1` had a CC50 of 16.2 µM.
As to `Cc1cc(NC(=O)CSc2nc(C(C)C)nc3sc4c(c23)CCCC4)no1`, the IC50 is 11.2 µM, the concentration for an effect of 90% (IC90) is > 100 µM and the CC50 is > 40 µM.
For the molecule `CC(=O)Nc1nc(NC(=O)/C=C/c2ccccc2)n(-c2ccccc2)n1`, the IC50 was 3.63 µM, the IC90 is 8.76 µM and the CC50 came out at 27.7 µM.
Consider `CCOC(=O)c1ccc(NC(=O)CCSCCc2ccccn2)cc1`, for which the IC50 was 55.4 µM and the IC90 was > 100 µM.
Regarding `CCCCc1c(C)c(C#N)c2nc3ccccc3n2c1Cl`, the IC50 is 10.1 µM, the IC90 is > 100 µM and the CC50 stood at 5.35 µM.
For `O=C(Nc1ccccc1F)C(=Cc1sc(N2CCOCC2)nc1-c1ccccc1)C(=O)Nc1ccccc1F` the same measures were 51 µM, > 100 µM and > 40 µM.
As to `Cc1cc(OCCCCCn2ccnc2)cc(C)c1Cl`, the IC50 is 4.17 µM, the IC90 was found to be 5.19 µM and the CC50 came out at 24.6 µM.
Consider `COc1ccc(C(CCN2CCCCC2)c2c(OC)cc(OC)c3c(-c4ccccc4)cc(=O)oc23)cc1` (stereo not drawn), for which the IC50 is 7.16 µM, the IC90 was 10.9 µM and the CC50 amounted to 16 µM.
`CC(C)Cn1c(N2CCN(C(=O)/C=C/c3ccccc3)CC2)nc2ccccc21`: the IC50 is 21.5 µM and the IC90 turned out to be 29.9 µM.
For `CC(NC(=O)Nc1ccc(Br)cc1)C(C)(C)C` (stereo not drawn) the same measures were 0.42 µM and > 100 µM.
As for `COc1cccc(-c2csc(N3CCN(C(=O)NC45CC6CC(CC(C6)C4)C5)CC3)n2)c1`, the concentration for half-maximal inhibition (IC50) was 1.09 µM, the IC90 is 1.92 µM and the CC50 is > 40 µM.
As to `Cc1ccc(NC(=O)NC2CCCCC2)cc1Cl`, the IC50 was 6.04 µM, the IC90 is > 100 µM and the CC50 is > 40 µM.
As for `COc1ccc(-c2nc(Cn3c(SCc4ccc(C)cc4)nc4ccncc43)c(C)o2)cc1OC`, the IC50 is 6.52 µM, the IC90 was > 100 µM and the CC50 was > 40 µM.
For `Cc1ccc(-n2c(-c3ccc(Br)cc3)c[n+]3c2CCc2ccc4cccnc4c2-3)cc1`, the IC50 is 0.76 µM, the IC90 amounted to 1.07 µM and the CC50 was 5.51 µM.
`C=CCn1c(O)c(C(CC)=Nc2ccc3c(c2)CCC3)c(=O)[nH]c1=O`: the IC50 was 17.8 µM and the IC90 was > 100 µM.
On the same counts, the results for `Cc1cccc(-c2nsc(SCC(=O)NCc3ccc4c(c3)OCO4)n2)c1` are 7.57 µM and > 100 µM.
Regarding `COC(=O)C1C(O)C(C)C(O)C(C)(O)/C=C\C=C(/C)C(=O)Nc2c(C)c(OC(C)=O)c3c(c2O)C(=O)C(C)=C2OCOC(=C23)/C(C)=C/C(C)(O)C(O)C(C)C1O` (stereo not drawn), the IC50 is 0.32 µM and the IC90 came out at 0.878 µM.
On the same counts, the results for `CCOc1ccc(NCc2ccccc2OCc2cccc(F)c2)cc1` are 8.84 µM and > 100 µM.
For the molecule `COc1cnc(-c2ccccn2)nc1Oc1c(C)cccc1C`, the IC50 is 5.19 µM, the 90% effect concentration (IC90) worked out at 14.7 µM and the CC50 is 19.8 µM.
On the same counts, the results for `CCOc1ccc2nc(NC(=O)c3ccccn3)sc2c1` are 1.36 µM, 3.07 µM and 15.1 µM.
On the same counts, the results for `CC(=O)c1sc(NC(=O)c2cc(-c3ccccc3)nn2-c2ccccc2)nc1C` are 27.7 µM, > 100 µM and > 40 µM.
For `O=C(/C=C/c1ccccc1)CC(=O)c1ccccc1O` the same measures were 23.7 µM, > 100 µM and > 40 µM.
Consider `Cc1cccc(-n2cc(CN(C)Cc3nccn3C)c(-c3cccc(F)c3)n2)c1`, for which the half-maximal inhibitory concentration (IC50) is 7.43 µM, the IC90 came out at 12.1 µM and the CC50 was > 40 µM.
As for `COc1cccc(-c2nnc(Nc3nc4c(F)cccc4s3)o2)c1`, the half-inhibitory concentration (IC50) is 1.56 µM, the IC90 stood at 51.8 µM and the 50% cytotoxic concentration (CC50) was > 40 µM.
Take `COc1ccccc1-c1nnc(SCC(=O)Nc2cc(C)on2)o1`: the IC50 is 10.4 µM and the IC90 came out at 16.5 µM.
For `Nc1ccc2c(c1)Cc1ccccc1-2` the same measures were 18.3 µM and > 100 µM.
On the same counts, the results for `CCOc1ccc(NC(=O)NC23CC4CC(CC(C4)C2)C3)cc1` are 2.58 µM and > 100 µM.
With `Cc1ccc(Cn2ccc(=O)c(OCc3c(Cl)cccc3Cl)c2C)cc1`, the IC50 is 8.57 µM, the IC90 was found to be 11.8 µM and the CC50 is > 40 µM.
For `CC1CC1C(=O)Nc1nc(-c2ccccn2)cs1` (stereo not drawn), the IC50 is 2.13 µM, the IC90 is 4.75 µM and the CC50 turned out to be 25.9 µM.
On the same counts, the results for `CC(C)(C)c1ccccc1OCCCCCn1ccnc1` are 8.29 µM, 10.9 µM and > 40 µM.
On the same counts, the results for `Nc1nc(CN2CCN(C(c3ccccc3)c3ccccc3)CC2)nc(Nc2ccccc2)n1` are 36.4 µM, > 100 µM and > 40 µM.
As for `CCOC(=O)c1cc(-c2csc(COc3ccc(Cl)cc3)n2)on1`, the IC50 is < 0.195 µM and the IC90 came to 2.41 µM.

Broadly, the IC50 is the concentration that inhibits the measured activity by half. For orientation: IC90 means the concentration needed for an effect of 90%. Read a high IC90 as a need for much substance. The CC50 is the concentration at which the toxic effect on the cells reaches its halfway point. High values mean lower toxicity to the cells, low ones greater toxicity to the cells.
